From patent publication US8138188B2, “Melanocortin type 4 receptor agonist piperidinoylpyrrolidines” (Pfizer Inc., priority 2006, dated 2012)
One block for each molecule: values may come before it.

Tests used:
MC4 receptor (MC4R) = target: T1, MC4 receptor (MC4R) (Homo sapiens, UniProt P32245); assay: AGRP inhibition: competition binding vs [125I]AGRP(87-132) at CHO-CRE MC4R cell membranes; conditions: vs 0.3 nM [125I]AGRP(87-132)
T1 construct: expressed in transfected cells; host or cells: CHO-CRE MC4R cells (membranes)
Text: Agouti related protein (AGRP) is a high affinity endogenous antagonist/inverse agonist for the MC4 receptor (Lu et al., 1994, Nature 371: 799-802; Oilman et al., 1997, Science 278: 135-138). […] It has been ascertained that this C-terminal fragment of AGRP contains the MC4R binding determinants (Yang et al., 1999, Mol Endocrinol 13: 148-155), therefore, compounds can be evaluated for their ability to inhibit AGRP binding to membranes from cells expressing the MC4R using a competition binding assay versus [^125I]AGRP(87-132). To this end cells expressing the MC4R were subject to homogenisation and the membrane fragment isolated by differential centrifugation. CHO-CRE MC4R cell membranes (12 μg protein) were incubated with 0.3 nM [^125I]AGRP(87-132) and 11 half-log concentrations of competitor ligand, in duplicate, in a total volume of 100 μl buffer (25 mM HEPES, 1 mM MgCl2, 2.5 mM CaCl2, 0.5% BSA pH 7.0). Non-specific binding was determined by the inclusion of 1 μM SHU9119. The reaction was initiated by the addition of membranes and plates were incubated at room temperature for 2 hours. The reaction was terminated by rapid filtration onto GF/C filters (presoaked in 1% PEI) using a vacuum harvester followed by five 200 μl washes of ice cold wash buffer (Binding buffer containing 500 mM NaCl). The filters were soaked in 50 μl scintillation fluid and the amount of radioactivity present was determined by liquid scintillation counting. Ki values were determined by data analysis using appropriate software.

CYP3A4 = target: T2, CYP3A4 (Homo sapiens, UniProt P08684); assay: High density drug-drug interactions (DDI) 3 μM cocktail screen in human liver microsomes; format: in vitro ADME; conditions: 3 uM test compound, pooled human liver microsomes, probe midazolam 2 μM; read-out: % Inhibition of 3A4 metabolism at 3 uM
T2 construct: utilizes human liver microsomes together with isoform-specific clinical drug probes; from tissue; host or cells: human liver microsomes
Protocol: High Density Drug-Drug Interactions (DDI) 3 μM Cocktail Screen
A drug interaction is a situation in which a substance affects the activity of another drug, i.e. the effects are increased or decreased, or together they produce a new effect that neither produces on its own. Drug interactions may be the result of various processes but a relatively common one is where one drug affects the pharmacokinetics of another by inhibiting the cytochrome P450 that metabolises it. Because of the importance of these phenomena, assessment of the DDI potential for new chemical entities (NCEs) is considered important early on in the drug discovery process.
The DDI cocktail screen in human liver microsomes (HLM) is run in a fully automated fashion and the aim of the screen is to provide a single-point assessment of the DDI potential of new chemical entity (NCE; tested at 3 μM) against the 4 primary cytochrome P450 enzymes, 1A2, 2D6, 2C9 and 3A4.
The substrate cocktail approach for P450 DDI utilizes human liver microsomes together with isoform-specific clinical drug probes and permits the simultaneous measurement of the inhibition of P450 1A2, 2C9, 2D6 & 3A4 activities in a single incubation. This is run in high throughput with simultaneous detection of metabolites by LC-MS/MS. This method has been thoroughly tested and evaluated using standard compounds.
Appearance of the metabolite of each substrate is measured over time in the presence and absence of the NCE (test compound/inhibitor) at a concentration of 3 μM. The compounds are assessed for their inhibitory potential as a percentage value and interpreted using the following scheme.

T2 sequence (P08684 whole entry, canonical isoform): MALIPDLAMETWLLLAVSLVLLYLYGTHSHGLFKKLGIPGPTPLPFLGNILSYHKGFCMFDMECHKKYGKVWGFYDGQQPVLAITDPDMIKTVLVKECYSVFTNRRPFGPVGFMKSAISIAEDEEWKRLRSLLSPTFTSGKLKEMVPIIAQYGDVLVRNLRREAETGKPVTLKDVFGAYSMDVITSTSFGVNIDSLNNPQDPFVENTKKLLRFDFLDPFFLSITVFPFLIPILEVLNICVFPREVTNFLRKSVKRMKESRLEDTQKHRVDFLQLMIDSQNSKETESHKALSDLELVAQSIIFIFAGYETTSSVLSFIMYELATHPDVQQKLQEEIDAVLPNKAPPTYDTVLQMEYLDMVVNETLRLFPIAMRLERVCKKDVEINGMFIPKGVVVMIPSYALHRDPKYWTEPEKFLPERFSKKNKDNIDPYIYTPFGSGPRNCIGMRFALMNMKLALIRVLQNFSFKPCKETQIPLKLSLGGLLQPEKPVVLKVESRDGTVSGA
T1 sequence (P32245 whole entry): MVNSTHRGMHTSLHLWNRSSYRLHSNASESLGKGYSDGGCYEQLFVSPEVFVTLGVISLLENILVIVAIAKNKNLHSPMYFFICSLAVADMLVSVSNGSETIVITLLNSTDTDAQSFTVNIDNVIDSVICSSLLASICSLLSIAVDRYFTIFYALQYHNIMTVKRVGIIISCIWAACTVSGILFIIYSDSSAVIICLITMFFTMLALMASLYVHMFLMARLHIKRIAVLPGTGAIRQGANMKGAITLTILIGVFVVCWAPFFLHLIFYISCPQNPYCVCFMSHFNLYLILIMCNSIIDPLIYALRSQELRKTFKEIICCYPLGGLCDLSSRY

Structure (SMILES): C[C@@H]1CN(C(=O)[C@@H]2CN(c3cncc(F)c3)C[C@H]2c2ccc(Cl)cn2)C[C@H](C)[C@@]1(O)c1ccccn1 [Example 8, (3R,4R,5S)-1-{[(3S,4S)-4-(5-chloropyridin-2-yl)-1-(5-fluoropyridin-3-yl)pyrrolidin-3-yl]carbonyl}-3,5-dimethyl-4-pyridin-2-ylpiperidin-4-ol]
Ki (MC4 receptor (MC4R)): 643 nM | inhibition at 3 μM (CYP3A4): 94%

Structure (SMILES): C[C@@H]1CN(C(=O)[C@@H]2CN(c3cccnn3)C[C@H]2c2ccc(Cl)cn2)C[C@H](C)[C@@]1(O)c1ccccn1 [Example 9, (3R,4R,5S)-1-{[(3S,4S)-4-(5-chloropyridin-2-yl)-1-pyridazin-3-ylpyrrolidin-3-yl]carbonyl}-3,5-dimethyl-4-pyridin-2-ylpiperidin-4-ol]
Ki (MC4 receptor (MC4R)): 523 nM | inhibition at 3 μM (CYP3A4): 68%

Structure (SMILES): C[C@@H]1CN(C(=O)[C@@H]2CN(c3ccc(=O)n(C)n3)C[C@H]2c2ccc(Cl)cn2)C[C@H](C)[C@@]1(O)c1ccc(Cl)cn1 [Example 10]
Ki (MC4 receptor (MC4R)): 223 nM | inhibition at 3 μM (CYP3A4): 19%

Structure (SMILES): C[C@@H]1CN(C(=O)[C@@H]2CN(c3ccc(=O)n(C)n3)C[C@H]2c2ccc(Cl)cn2)C[C@H](C)[C@@]1(O)C1CCCCC1 [Example 17]
Ki (MC4 receptor (MC4R)): 20 nM | inhibition at 3 μM (CYP3A4): 35%

Structure (SMILES): C[C@@H]1CN(C(=O)[C@@H]2CN(c3ccc(=O)n(C)n3)C[C@H]2c2ccc(Cl)cn2)C[C@H](C)[C@@]1(O)C1CC1 [Example 18]
Ki (MC4 receptor (MC4R)): 965 nM | inhibition at 3 μM (CYP3A4): 34%

Structure (SMILES): CC1CN(C(=O)C2CN(c3ccc(=O)n(C)n3)CC2c2ccc(Cl)cn2)CC(C)C1(O)c1ccc(F)c(F)c1 (stereo not shown) [Example 19]
Ki (MC4 receptor (MC4R)): 79 nM | inhibition at 3 μM (CYP3A4): 50%

Structure (SMILES): COc1ccc(C2(O)C(C)CN(C(=O)C3CN(c4ccc(=O)n(C)n4)CC3c3ccc(Cl)cn3)CC2C)cc1 (stereo not shown) [Example 20]
Ki (MC4 receptor (MC4R)): 253 nM | inhibition at 3 μM (CYP3A4): 35%

Structure (SMILES): CC1CN(C(=O)C2CN(c3ccc(=O)n(C)n3)CC2c2ccc(Cl)cn2)CC(C)C1(O)c1ccccc1 (stereo not shown) [Example 21]
Ki (MC4 receptor (MC4R)): 66 nM | inhibition at 3 μM (CYP3A4): 25%

Structure (SMILES): C[C@@H]1CN(C(=O)[C@@H]2CN(c3ccc(=O)n(C)n3)C[C@H]2c2ccc(Cl)cn2)C[C@H](C)[C@@]1(O)c1ccccn1 [Example 22]
Ki (MC4 receptor (MC4R)): 5960 nM | inhibition at 3 μM (CYP3A4): 54%

Structure (SMILES): CC1CN(C(=O)C2CN(c3ccc(=O)n(C)n3)CC2c2ccc(Cl)cn2)CC(C)C1(O)c1ccc(Cl)cc1 (stereo not shown) [Example 23]
Ki (MC4 receptor (MC4R)): 79 nM | inhibition at 3 μM (CYP3A4): 35%

Structure (SMILES): CC1CN(C(=O)C2CN(c3cncc(F)c3)CC2c2ccc(Cl)cn2)CC(C)C1(O)C1CC1 (stereo not shown) [Example 24]
Ki (MC4 receptor (MC4R)): > 955 nM | inhibition at 3 μM (CYP3A4): 87%

Structure (SMILES): COc1ccc(N2CC(C(=O)N3CC(C)C(O)(C4CC4)C(C)C3)C(c3ccc(Cl)cn3)C2)nn1 (stereo not shown) [Example 26]
Ki (MC4 receptor (MC4R)): 363 nM | inhibition at 3 μM (CYP3A4): 61%

Structure (SMILES): CC1CN(C(=O)C2CN(c3ccc(=O)[nH]n3)CC2c2ccc(Cl)cn2)CC(C)C1(O)c1ccccc1 (stereo not shown) [Example 27]
Ki (MC4 receptor (MC4R)): 100 nM | inhibition at 3 μM (CYP3A4): 64%

Structure (SMILES): C[C@@H]1CN(C(=O)[C@@H]2CN(c3ccc(=O)[nH]n3)C[C@H]2c2ccc(Cl)cn2)C[C@H](C)[C@@]1(O)c1ccccn1 [Example 28]
Ki (MC4 receptor (MC4R)): 516 nM | inhibition at 3 μM (CYP3A4): 77%

Structure (SMILES): C[C@@H]1CN(C(=O)[C@@H]2CN(c3ccc(Cl)nn3)C[C@H]2c2ccc(Cl)cn2)C[C@H](C)[C@@]1(O)c1ccccn1 [Example 31]
Ki (MC4 receptor (MC4R)): 526 nM | inhibition at 3 μM (CYP3A4): 60%

Structure (SMILES): C[C@@H]1CN(C(=O)[C@@H]2CN(c3ccc(Cl)nn3)C[C@H]2c2ccc(F)cn2)C[C@H](C)[C@@]1(O)c1ccccc1 [Example 35]
Ki (MC4 receptor (MC4R)): 386 nM | inhibition at 3 μM (CYP3A4): 46%

Structure (SMILES): CC1CN(C(=O)C2CN(c3ccc(=O)[nH]n3)CC2c2ccc(F)cn2)CC(C)C1(O)c1ccccc1 (stereo not shown) [Example 37]
Ki (MC4 receptor (MC4R)): 422 nM | inhibition at 3 μM (CYP3A4): 45%

Structure (SMILES): CC1CN(C(=O)C2CN(c3ccc(=O)n(C)n3)CC2c2ccc(F)cn2)CC(C)C1(O)c1ccccc1 (stereo not shown) [Example 39]
Ki (MC4 receptor (MC4R)): 751 nM | inhibition at 3 μM (CYP3A4): 30%

Structure (SMILES): CC1CN(C(=O)C2CN(c3ccc(=O)n(C)n3)CC2c2ccc(F)cn2)CC(C)C1(O)c1ccc(F)cc1 (stereo not shown) [Example 40]
Ki (MC4 receptor (MC4R)): 430 nM | inhibition at 3 μM (CYP3A4): 64%

Structure (SMILES): COc1ccc([C@@H]2CN(c3ccc(=O)[nH]n3)C[C@H]2C(=O)N2C[C@@H](C)[C@](O)(c3ccc(Cl)cn3)[C@@H](C)C2)nc1 [Example 41]
Ki (MC4 receptor (MC4R)): 3750 nM | inhibition at 3 μM (CYP3A4): 52%

Structure (SMILES): COc1ccc(C2CN(c3ccc(=O)[nH]n3)CC2C(=O)N2CC(C)C(O)(c3ccc(F)cc3)C(C)C2)nc1 (stereo not shown) [Example 42]
Ki (MC4 receptor (MC4R)): 888 nM | inhibition at 3 μM (CYP3A4): 59%

The remaining lines, values ahead:

Ki (MC4 receptor (MC4R)): 39 nM | inhibition at 3 μM (CYP3A4): 54%
Structure (SMILES): C[C@@H]1CN(C(=O)[C@@H]2CN(c3ccc(C#N)cn3)C[C@H]2c2ccc(Cl)cn2)C[C@H](C)[C@@]1(O)c1ccc(F)cc1 [Example 1, 6-[(3S,4S)-3-(5-Chloropyridin-2-yl)-4-{[(3R,4R,5S)-4-(4-fluorophenyl)-4-hydroxy-3,5-dimethylpiperidin-1-yl]carbonyl}pyrrolidin-1-yl]nicotinonitrile]

Ki (MC4 receptor (MC4R)): 59 nM | inhibition at 3 μM (CYP3A4): 64%
Structure (SMILES): C[C@@H]1CN(C(=O)[C@@H]2CN(c3ccc(C#N)nn3)C[C@H]2c2ccc(Cl)cn2)C[C@H](C)[C@@]1(O)c1ccc(F)cc1 [Example 2, 6-[(3S,4S)-3-(5-Chloropyridin-2-yl)-4-{[(3R,4R,5S)-4-(4-fluorophenyl)-4-hydroxy-3,5-dimethylpiperidin-1-yl]carbonyl}pyrrolidin-1-yl]pyridazine-3-carbonitrile]

Ki (MC4 receptor (MC4R)): 51 nM | inhibition at 3 μM (CYP3A4): 38%
Structure (SMILES): COc1ccc(N2C[C@@H](C(=O)N3C[C@@H](C)[C@](O)(c4ccc(F)cc4)[C@@H](C)C3)[C@H](c3ccc(Cl)cn3)C2)nn1 [Example 4, (3R,4R,5S)-1-{[(3S,4S)-4-(5-chloropyridin-2-yl)-1-(6-methoxypyridazin-3-yl)pyrrolidin-3-yl]carbonyl}-4-(4-fluorophenyl)-3,5-dimethylpiperidin-4-ol]

Ki (MC4 receptor (MC4R)): 552 nM | inhibition at 3 μM (CYP3A4): 34%
Structure (SMILES): C[C@@H]1CN(C(=O)[C@@H]2CN(c3ccc(Cl)nn3)C[C@H]2c2ccc(F)cn2)C[C@H](C)[C@@]1(O)c1ccc(Cl)cc1 [Example 5, (3R,4R,5S)-4-(4-chlorophenyl)-1-{[(3S,4S)-1-(6-chloropyridazin-3-yl)-4-(5-fluoropyridin-2-yl)pyrrolidin-3-yl]carbonyl}-3,5-dimethylpiperidin-4-ol]

Ki (MC4 receptor (MC4R)): 456 nM | inhibition at 3 μM (CYP3A4): 32%
Structure (SMILES): C[C@@H]1CN(C(=O)[C@@H]2CN(c3ccc(=O)[nH]n3)C[C@H]2c2ccc(F)cn2)C[C@H](C)[C@@]1(O)c1ccc(Cl)cc1 [Example 6, 6-[(3S,4S)-3-{[(3R,4R,5S)-4-(4-chlorophenyl)-4-hydroxy-3,5-dimethylpiperidin-1-yl]carbonyl}-4-(5-fluoropyridin-2-yl)pyrrolidin-1-yl]pyridazin-3(2H)-one]

Ki (MC4 receptor (MC4R)): 714 nM | inhibition at 3 μM (CYP3A4): 19%
Structure (SMILES): C[C@@H]1CN(C(=O)[C@@H]2CN(c3ccc(=O)n(C)n3)C[C@H]2c2ccc(F)cn2)C[C@H](C)[C@@]1(O)c1ccc(Cl)cc1 [Example 7, 6-[(3S,4S)-3-{[(3R,4R,5S)-4-(4-chlorophenyl)-4-hydroxy-3,5-dimethylpiperidin-1-yl]carbonyl}-4-(5-fluoropyridin-2-yl)pyrrolidin-1-yl]-2-methylpyridazin-3(2H)-one]

Ki (MC4 receptor (MC4R)): 251 nM | inhibition at 3 μM (CYP3A4): 83%
Structure (SMILES): COc1ccc(C2CN(c3ccc(C#N)nn3)CC2C(=O)N2CC(C)C(O)(c3ccc(F)cc3)C(C)C2)cn1 (stereo not shown) [Example 16]

Ki (MC4 receptor (MC4R)): 278 nM | inhibition at 3 μM (CYP3A4): 16%
Structure (SMILES): CC1CN(C(=O)C2CN(c3cncc(F)c3)CC2c2ccc(Cl)cn2)CC(C)C1(O)c1ccc(F)cc1 (stereo not shown) [Example 25]

Ki (MC4 receptor (MC4R)): 112 nM | inhibition at 3 μM (CYP3A4): 38%
Structure (SMILES): CC1CN(C(=O)C2CN(c3ccc(C#N)nn3)CC2c2ccc(Cl)cn2)CC(C)C1(O)c1ccccn1 (stereo not shown) [Example 30]

Ki (MC4 receptor (MC4R)): 160 nM | inhibition at 3 μM (CYP3A4): 31%
Structure (SMILES): C[C@@H]1CN(C(=O)[C@@H]2CN(c3ccc(C#N)nn3)C[C@H]2c2ccc(F)cn2)C[C@H](C)[C@@]1(O)c1ccc(Cl)cc1 [Example 32]

Ki (MC4 receptor (MC4R)): 220 nM | inhibition at 3 μM (CYP3A4): 19%
Structure (SMILES): CC1CN(C(=O)C2CN(c3ccc(C#N)nn3)CC2c2ccc(F)cn2)CC(C)C1(O)c1ccccc1 (stereo not shown) [Example 33]
